Data published in ChEMBL document CHEMBL1147219, “Hyperatomarin, an antibacterial prenylated phloroglucinol from Hypericumatomarium ssp. degenii” (2003).
Converted amounts (≈) assume the structure as drawn.

Tests used:
Assay type in all cases: functional
Bacillus subtilis = test: Antibacterial activity against Bacillus subtilis ATCC 6633 after 24 hrs by agar dilution method; conditions: ATCC 6633, 24 h
Staphylococcus aureus = test: Antibacterial activity against Staphylococcus aureus ATCC 25923 after 24 hrs by agar dilution method; conditions: ATCC 25923, 24 h
Bacillus = test: Antibacterial activity against Bacillus IP 5832 after 24 hrs by agar dilution method
Micrococcus luteus = test: Antibacterial activity against Micrococcus luteus ATCC 4698 after 24 hrs by agar dilution method; conditions: ATCC 4698, 24 h

MIC (Bacillus subtilis) | MIC (Staphylococcus aureus) | MIC (Bacillus) | MIC (Micrococcus luteus) | SMILES
3.12 µg/mL (≈ 7.79 µM) | 1.56 µg/mL (≈ 3.89 µM) | 1.56 µg/mL (≈ 3.89 µM) | 1.56 µg/mL (≈ 3.89 µM) | CC(C)=CCC[C@@]1(C)[C@H](CC=C(C)C)C[C@@H]2C(=O)C(C(=O)C(C)C)=C(O)[C@H]1C2=O [HYPERATOMARIN]
0.39 µg/mL (≈ 0.531 µM) | 0.2 µg/mL (≈ 0.273 µM) | 0.39 µg/mL (≈ 0.531 µM) | 0.2 µg/mL (≈ 0.273 µM) | CC[C@H]1OC(=O)[C@H](C)[C@@H](O[C@H]2C[C@@](C)(OC)[C@@H](O)[C@H](C)O2)[C@H](C)[C@@H](O[C@@H]2O[C@H](C)C[C@H](N(C)C)[C@H]2O)[C@](C)(O)C[C@@H](C)C(=O)[C@H](C)[C@@H](O)[C@]1(C)O [ERYTHROMYCIN]
